Results taken from PubChem BioAssay (NCI).
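48-hour exposure; five concentrations; linearly interpolated endpoints. TGI denotes the concentration required for complete inhibition of growth.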

Columns and labels:
Experiment in all cases: NCI tumour cell line growth inhibition, 48 h
TK-10 renal = system: TK-10 renal
HCC-2998 colon = system: HCC-2998 colon
HCT-15 colon = system: HCT-15 colon
SK-OV-3 ovarian = system: SK-OV-3 ovarian
HCT-116 colon = system: HCT-116 colon
MCF7 breast = system: MCF7 breast
HOP-92 NSCLC = system: HOP-92 NSCLC
K-562 leukemia = system: K-562 leukemia
LOX IMVI melanoma = system: LOX IMVI melanoma
786-0 renal = system: 786-0 renal
KM12 colon = system: KM12 colon
UO-31 renal = system: UO-31 renal
COLO 205 colon = system: COLO 205 colon
SF-539 CNS = system: SF-539 CNS
RXF 393 renal = system: RXF 393 renal
SF-295 CNS = system: SF-295 CNS
SF-268 CNS = system: SF-268 CNS
U251 CNS = system: U251 CNS
MDA-MB-231 breast = system: MDA-MB-231 breast
UACC-257 melanoma = system: UACC-257 melanoma
OVCAR-5 ovarian = system: OVCAR-5 ovarian
MDA-N = system: MDA-N
OVCAR-8 ovarian = system: OVCAR-8 ovarian
PC-3 prostate = system: PC-3 prostate
SN12C renal = system: SN12C renal
SK-MEL-5 melanoma = system: SK-MEL-5 melanoma
M14 melanoma = system: M14 melanoma
EKVX NSCLC = system: EKVX NSCLC
SNB-19 CNS = system: SNB-19 CNS
SNB-75 CNS = system: SNB-75 CNS
CCRF-CEM leukemia = system: CCRF-CEM leukemia
UACC-62 melanoma = system: UACC-62 melanoma
OVCAR-4 ovarian = system: OVCAR-4 ovarian
IGROV1 ovarian = system: IGROV1 ovarian
NCI/ADR-RES ovarian = system: NCI/ADR-RES ovarian
NCI-H23 lung = system: NCI-H23 lung
DU-145 prostate = system: DU-145 prostate
SR leukemia = system: SR leukemia
HT29 colon = system: HT29 colon
SK-MEL-2 melanoma = system: SK-MEL-2 melanoma
A549 NSCLC = system: A549 NSCLC
ACHN renal = system: ACHN renal
HOP-62 NSCLC = system: HOP-62 NSCLC
SK-MEL-28 melanoma = system: SK-MEL-28 melanoma
SW-620 colon = system: SW-620 colon
BT-549 breast = system: BT-549 breast
RPMI-8226 leukemia = system: RPMI-8226 leukemia
OVCAR-3 ovarian = system: OVCAR-3 ovarian
NCI-H522 lung = system: NCI-H522 lung
MDA-MB-435 = system: MDA-MB-435
MOLT-4 leukemia = system: MOLT-4 leukemia
HL-60(TB) leukemia = system: HL-60(TB) leukemia
A498 renal = system: A498 renal
CAKI-1 renal = system: CAKI-1 renal
NCI-H226 lung = system: NCI-H226 lung
NCI-H460 lung = system: NCI-H460 lung

Structure (SMILES): CCc1nnc(CC)n1-n1c(Cc2ccccc2)n[nH]c1=O
- TGI (TK-10 renal): > 100 µM
- TGI (HCC-2998 colon): > 100 µM
- TGI (HCT-15 colon): > 100 µM
- TGI (SK-OV-3 ovarian): > 100 µM
- TGI (HCT-116 colon): > 100 µM
- TGI (MCF7 breast): > 100 µM
- TGI (HOP-92 NSCLC): > 100 µM
- TGI (K-562 leukemia): > 100 µM
- TGI (LOX IMVI melanoma): > 100 µM
- TGI (786-0 renal): > 100 µM
- TGI (KM12 colon): > 100 µM
- TGI (UO-31 renal): > 100 µM
- TGI (COLO 205 colon): > 100 µM
- TGI (SF-539 CNS): > 100 µM
- TGI (RXF 393 renal): > 100 µM
- TGI (SF-295 CNS): > 100 µM
- TGI (SF-268 CNS): > 100 µM
- TGI (U251 CNS): > 100 µM
- TGI (MDA-MB-231 breast): > 100 µM
- TGI (UACC-257 melanoma): > 100 µM
- TGI (OVCAR-5 ovarian): > 100 µM
- TGI (MDA-N): > 100 µM
- TGI (OVCAR-8 ovarian): > 100 µM
- TGI (PC-3 prostate): > 100 µM
- TGI (SN12C renal): > 100 µM
- TGI (SK-MEL-5 melanoma): > 100 µM
- TGI (M14 melanoma): > 100 µM
- TGI (EKVX NSCLC): > 100 µM
- TGI (SNB-19 CNS): > 100 µM
- TGI (SNB-75 CNS): > 100 µM
- TGI (CCRF-CEM leukemia): > 100 µM
- TGI (UACC-62 melanoma): > 100 µM
- TGI (OVCAR-4 ovarian): > 100 µM
- TGI (IGROV1 ovarian): > 100 µM
- TGI (NCI/ADR-RES ovarian): > 100 µM
- TGI (NCI-H23 lung): > 100 µM
- TGI (DU-145 prostate): > 100 µM
- TGI (SR leukemia): > 100 µM
- TGI (HT29 colon): > 100 µM
- TGI (SK-MEL-2 melanoma): > 100 µM
- TGI (A549 NSCLC): > 100 µM
- TGI (ACHN renal): > 100 µM
- TGI (HOP-62 NSCLC): > 100 µM
- TGI (SK-MEL-28 melanoma): > 100 µM
- TGI (SW-620 colon): > 100 µM
- TGI (BT-549 breast): > 100 µM
- TGI (RPMI-8226 leukemia): > 100 µM
- TGI (OVCAR-3 ovarian): > 100 µM
- TGI (NCI-H522 lung): > 100 µM
- TGI (MDA-MB-435): > 100 µM
- TGI (MOLT-4 leukemia): > 100 µM

Structure (SMILES): O=C1CC[C@@]2(O)[C@H]3Cc4ccc(-c5cccc(O)c5)c5c4[C@@]2(CCN3CC2CC2)[C@H]1O5
- TGI (HL-60(TB) leukemia): 4.92 µM
- TGI (TK-10 renal): 47 µM
- TGI (HCC-2998 colon): 34.1 µM
- TGI (HCT-15 colon): 71.3 µM
- TGI (HCT-116 colon): 38.6 µM
- TGI (MCF7 breast): > 92.4 µM
- TGI (A498 renal): 48.3 µM
- TGI (HOP-92 NSCLC): 80.8 µM
- TGI (K-562 leukemia): 47 µM
- TGI (CAKI-1 renal): > 100 µM
- TGI (LOX IMVI melanoma): 27.2 µM
- TGI (786-0 renal): 36.6 µM
- TGI (KM12 colon): 57.5 µM
- TGI (UO-31 renal): 42.7 µM
- TGI (COLO 205 colon): 43.3 µM
- TGI (SF-539 CNS): 36.6 µM
- TGI (RXF 393 renal): 52.7 µM
- TGI (SF-295 CNS): 43.9 µM
- TGI (SF-268 CNS): 67.1 µM
- TGI (U251 CNS): 25.1 µM
- TGI (MDA-MB-231 breast): 46.9 µM
- TGI (NCI-H226 lung): 90.2 µM
- TGI (UACC-257 melanoma): 26.5 µM
- TGI (OVCAR-5 ovarian): > 80.3 µM
- TGI (MDA-N): 30.9 µM
- TGI (OVCAR-8 ovarian): 44.4 µM
- TGI (PC-3 prostate): > 91.2 µM
- TGI (SN12C renal): > 83.3 µM
- TGI (SK-MEL-5 melanoma): 31.2 µM
- TGI (M14 melanoma): 26.2 µM
- TGI (EKVX NSCLC): > 30.4 µM
- TGI (NCI-H460 lung): 29.2 µM
- TGI (SNB-19 CNS): > 100 µM
- TGI (CCRF-CEM leukemia): 0.513 µM
- TGI (UACC-62 melanoma): 28.2 µM
- TGI (OVCAR-4 ovarian): > 100 µM
- TGI (IGROV1 ovarian): > 89.6 µM
- TGI (NCI/ADR-RES ovarian): 53.2 µM
- TGI (NCI-H23 lung): > 84 µM
- TGI (DU-145 prostate): > 100 µM
- TGI (SR leukemia): 66.9 µM
- TGI (HT29 colon): 33.4 µM
- TGI (SK-MEL-2 melanoma): 24.8 µM
- TGI (A549 NSCLC): > 100 µM
- TGI (ACHN renal): > 85.9 µM
- TGI (HOP-62 NSCLC): 66.2 µM
- TGI (SK-MEL-28 melanoma): > 100 µM
- TGI (SW-620 colon): > 55.6 µM
- TGI (BT-549 breast): 76.6 µM
- TGI (RPMI-8226 leukemia): 52.1 µM
- TGI (OVCAR-3 ovarian): 43.9 µM
- TGI (NCI-H522 lung): 30.9 µM
- TGI (MDA-MB-435): 27.8 µM
- TGI (MOLT-4 leukemia): 56.4 µM
